Experimental findings from US5688960A, “Substituted oximes, hydrazones and olefins useful as neurokinin antagonists” (Schering Corporation, priority 1996, dated 1997) are described below.

The target of assay [1] is T1, human neurokinin 1 (NK1) receptor (Homo sapiens, UniProt P25103).
T1 construct: expressed in transfected cells; host or cells: Chinese Hamster ovary (CHO) cells; membranes
As to the kind of experiment: Neurokinin receptor binding assay, [3H]-Substance P competition, CHO cell membranes (NK1). The note with it: [3H]-Substance P 0.8 nM. The procedure:
(§1) Chinese Hamster ovary (CHO) cells transfected with the coding regions for the human neurokinin 1 (NK1) of the human neurokinin 2 (NK2) receptors are grown in Dulbecco's minimal essential medium supplemented with 10% fetal calf serum, 0.1 mM non-essential amino acids, 2 mM glutamine, 100 units/ml of penicillin and streptomycin, and 0.8 mg of G418/ml at 37° C. in a humidified atmosphere containing 5% CO2.
(§2) Cells are detached from T-175 flasks with a sterile solution containing 5 mM EDTA in phosphate buffered saline. Cells are harvested by centrifugation and washed in RPMI media at […] for 5 minutes. […]
(§3) To assay receptor binding, 50 μl of [^3 H]-Substance P (9-Sar, 11-Met) (specific activity 41 Ci/mmol) (Dupont-NEN) (0.8 nM for the NK-1 assay) or [^3 H]-Neurokinin A (specific activity 114 Ci/mmole) (Zenca) (1.0 nM for the NK-2 assay) is added to tubes containing buffer (50 mM Tris-HCl (pH 7.4) with 1 mM MnCl2 and 0.2% Bovine Serum Albumin) and either DMSO or test compound. […] Filters are added to 6 mls of Ready-Safe liquid scintillation cocktail and quantified by liquid scintillation spectrometry in a LKB 1219 RackBeta counter. Non-specific binding is determined by the addition of either 1 μM of CP-99994 (NK-1) or 1 μM SR-48968 (NK-2) (both synthesized by the chemistry department of Schering-Plough Research Institute). […]

Assay [2] concerns the target T2, human neurokinin 2 (NK2) receptor (Homo sapiens, UniProt P21452).
T2 construct: expressed in transfected cells; host or cells: Chinese Hamster ovary (CHO) cells; membranes
T2 sequence (P21452 1-398): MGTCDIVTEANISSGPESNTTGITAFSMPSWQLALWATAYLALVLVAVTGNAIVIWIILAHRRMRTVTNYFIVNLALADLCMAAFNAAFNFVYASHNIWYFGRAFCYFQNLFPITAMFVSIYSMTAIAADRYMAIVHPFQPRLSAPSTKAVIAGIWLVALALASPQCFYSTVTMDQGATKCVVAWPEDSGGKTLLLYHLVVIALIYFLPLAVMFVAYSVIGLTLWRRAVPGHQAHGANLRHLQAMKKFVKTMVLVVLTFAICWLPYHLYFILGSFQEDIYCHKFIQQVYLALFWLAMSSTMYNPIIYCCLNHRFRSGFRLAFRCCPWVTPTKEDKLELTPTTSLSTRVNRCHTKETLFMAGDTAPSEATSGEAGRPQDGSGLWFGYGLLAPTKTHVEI
As to the kind of experiment: Neurokinin receptor binding assay, [3H]-Neurokinin A competition, CHO cell membranes (NK2). To be noted: [3H]-Neurokinin A 1.0 nM. The procedure: as §1, §2, §3

pKi: −log10 of the molar value.

T1 sequence (P25103 whole entry): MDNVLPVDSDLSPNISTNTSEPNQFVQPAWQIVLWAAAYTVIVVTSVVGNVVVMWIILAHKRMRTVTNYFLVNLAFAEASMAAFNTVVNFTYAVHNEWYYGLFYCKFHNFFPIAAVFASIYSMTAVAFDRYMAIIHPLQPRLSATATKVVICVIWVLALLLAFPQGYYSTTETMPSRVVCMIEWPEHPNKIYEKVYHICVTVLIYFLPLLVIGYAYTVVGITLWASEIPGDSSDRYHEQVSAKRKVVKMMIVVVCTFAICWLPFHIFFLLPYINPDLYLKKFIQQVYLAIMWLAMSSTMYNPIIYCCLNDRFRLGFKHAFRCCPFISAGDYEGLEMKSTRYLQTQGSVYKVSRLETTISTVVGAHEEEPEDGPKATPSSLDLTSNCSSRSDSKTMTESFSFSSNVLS

Usually pKi stands for −log10 of the Ki, conventionally taken in molar units. High values mean a low Ki, low ones a high Ki. `OCCON=C(COCc1cc(C(F)(F)F)cc(C(F)(F)F)c1)C(CCN1CCC(O)(c2ccccc2)CC1)c1csc2ccccc12` (stereo not shown) [Example 4D]: the pKi in assay [1] was 8.74; in assay [2], 7.64.

With `CON=C(CN(C)C(=O)c1cc(C)cc(C)c1)C(CCN1CCC(O)(c2ccccc2)CC1)c1csc2ccccc12` (stereo not shown) [Example 7B], the figures for the pKi in assay [1] and in assay [2] were 9.19 and 8.35, respectively.
